Experimental data from patent publication US20070224194A1, “Methods for Inhibiting Angiogenesis and/or Lymphangiogenesis” (LUDWIG INSTITUTE FOR CANCER RESEARCH, priority 2004, published 2007).
The star is where a group is joined. Decanoyl = CCCCCCCCCC(=O)*; CH2Cl = ClC*

Key:
[1] = system: proteolytic processing of VEGF-D; assay: Processing of VEGF-D secreted by 293EBNA cells expressing VEGF-D-FULL-N-FLAG (immunoprecipitation/Western blot); assay type: cell-based, human; conditions: for proteolytic processing of full-length VEGF-D: 100 μM
Description: 293EBNA cells stably transfected with an expression construct encoding VEGF-C-FULL-N-Myc (full-length VEGF-C tagged with Myc at the N-terminus) or VEGF-D-FULL-N-FLAG (full-length VEGF-D tagged with FLAG at the N-terminus) secrete fully and partially processed forms of VEGF-C or VEGF-D into the culture medium (Joukov et al., EMBO J. 16:3898-3911 1997; Stacker et al., J. Biol. Chem. 274: 32127-32136, 1999). These cells were grown overnight in 24-well plates, seeded with 8×10^4 cells per well. At the time when cultures were initiated in these plates, growth medium was supplemented with Dec-RVKR-CMK (Calbiochem) (dissolved in methanol) to a final concentration of 0, 1, 10, 50 or 100 μM. Solvent control cultures were also established, in which the medium was supplemented with methanol at concentrations equal to those present in the cultures treated with inhibitor. After 18 hours of growth (at 37° C., 10% CO2 in a humidified environment), conditioned cell culture medium was removed from the cells and cleared by centrifugation (5 minutes, 250×g, 4° C.).
VEGF-C species were immunoprecipitated from conditioned medium by addition of anti-VEGF-C antibody that binds the VHD and C-terminal propeptide (R&D Systems). VEGF-D species were immunoprecipitated by addition of A2 antiserum that binds within the VHD of VEGF-D (Stacker et al., J. Biol. Chem. 274: 32127-32136, 1999). Immune complexes were allowed to form for 2 hours at 4° C. with gentle agitation and precipitated by addition of 10 μl of protein A sepharose beads and incubation for 2 hours at 4° C. with gentle agitation. Protein A sepharose complexes were recovered by centrifugation (5 minutes, 250×g, 4° C.) and washed twice with ice cold 50 mM Tris, 150 mM NaCl, pH 8.0. The precipitated VEGF-C and VEGF-D species were then analysed by Western blot using biotinylated antibodies against the VHD and C terminus of VEGF-C, or the VHD of VEGF-D (R&D Systems) and streptavidin-horse radish peroxidase conjugate (Zymed) (FIGS. 1 and 2). […]
The 293EBNA cell lines expressing VEGF-D-FULL-FLAG, VEGF-DΔC or VEGF-DΔN were seeded into 24-well plates (8×10^4 cells/well), in medium supplemented with Dec-RVKR-CMK dissolved in methanol, to a final concentration of 0, 1, 10, 50 or 100 μM. […] The precipitated VEGF-D species were then analysed by reducing SDS-PAGE and Western blotting using a biotinylated antibody against the VHD of human VEGF-D (R&D Systems), and Streptavidin-horse radish peroxidase conjugate (Zymed).

Furin = Furin (Homo sapiens, UniProt P09958); conditions: cited from earlier work
[2] = system: BaF3 cells expressing the VEGFR-2/EpoR chimeric receptor; assay: BaF3 bioassay, VEGFR-2/EpoR chimeric receptor, [3H]thymidine incorporation; assay type: cell-based; conditions: paper example in present tense
Text: (§1) In order to test if a furin or broad-range PC inhibitor can block the biological effects of VEGF-D, mammalian cells are employed that proteolytically process VEGF-D, such as 293EBNA or Capan-1 pancreatic carcinoma cells. Derivatives of these cells harboring an expression construct for full-length VEGF-D are transfected with the shRNA construct for furin (as described here) or treated with a broad-range PC inhibitor such as decanoyl-Arg-Val-Lys-Arg-chloromethylketone (see, PCT WO 2005/112971 A1, the disclosure of which is incorporated herein by reference in its entirety). The inhibition of VEGF-D processing by these agents is confirmed by immunoprecipitation/Western blotting of the conditioned cell culture media using antibody that binds the VHD of VEGF-D. The conditioned cell culture media from cells treated with the inhibitors (and from cells in which these agents are omitted, i.e. “mock” treatments) are used for incubations with BaF3 pre-B cells expressing chimeric receptors consisting of the extracellular domains of VEGFR-2 or VEGFR-3 and the transmembrane and cytoplasmic domains of the erythropoietin receptor (EpoR) (Stacker et al., J. Biol. Chem., 274:34884-34892, 1999; Achen et al., Eur. J. Biochem., 267:2505-2515, 2000). […] The proliferation of the cells in response to the conditioned media containing VEGF-D is monitored by incorporation of [3H]thymidine into DNA. […]

[3] = system: BaF3 cells expressing the VEGFR-3/EpoR chimeric receptor; assay: BaF3 bioassay, VEGFR-3/EpoR chimeric receptor, [3H]thymidine incorporation; assay type: cell-based; conditions: paper example in present tense
Text: as §1

Furin, sequence (P09958 108-794, species assumed): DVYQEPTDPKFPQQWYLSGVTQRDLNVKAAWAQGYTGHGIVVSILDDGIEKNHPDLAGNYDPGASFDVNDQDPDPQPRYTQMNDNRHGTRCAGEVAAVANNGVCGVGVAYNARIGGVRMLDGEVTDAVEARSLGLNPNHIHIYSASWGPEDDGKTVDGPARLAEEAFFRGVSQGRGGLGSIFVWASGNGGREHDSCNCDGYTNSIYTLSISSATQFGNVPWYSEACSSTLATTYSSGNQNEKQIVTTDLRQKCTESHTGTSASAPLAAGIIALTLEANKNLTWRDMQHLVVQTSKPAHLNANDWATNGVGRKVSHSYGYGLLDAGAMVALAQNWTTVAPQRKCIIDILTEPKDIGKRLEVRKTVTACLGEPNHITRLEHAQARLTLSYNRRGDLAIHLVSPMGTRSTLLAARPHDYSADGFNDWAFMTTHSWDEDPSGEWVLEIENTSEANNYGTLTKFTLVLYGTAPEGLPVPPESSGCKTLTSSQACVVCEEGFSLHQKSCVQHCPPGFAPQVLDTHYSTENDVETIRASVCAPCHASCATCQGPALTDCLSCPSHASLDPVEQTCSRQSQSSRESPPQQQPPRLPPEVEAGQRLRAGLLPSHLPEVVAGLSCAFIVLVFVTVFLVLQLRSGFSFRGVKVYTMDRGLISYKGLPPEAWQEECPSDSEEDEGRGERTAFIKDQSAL

Decanoyl-Arg-Val-Lys-Arg-chloromethylketone (Decanoyl-RVKR-CH2Cl) [Dec-RVKR-CMK]
abundance of fully and partially processed forms of VEGF-D ([1]; 0, 1, 10, 50 or 100 μM, 18 hours, Western blot): dramatically reduced in abundance in a dose-dependent manner | proteolytic processing of full-length VEGF-D ([1]; 18 hours): totally blocked | proteolytic processing of full-length VEGF-D ([1]; 18 hours, listed as dec-RVKR-CMK): complete inhibition | proteolysis of VEGF-D-FULL-N-FLAG ([1]; concentrations lower than 100 μM): incompletely inhibited | inhibition of furin (Furin): potently inhibited | proliferation of BaF3 VEGFR-2/EpoR cells induced by conditioned media of treated VEGF-D-expressing cells [2]: do not induce significant proliferation | proliferation of BaF3 VEGFR-3/EpoR cells induced by conditioned media of treated VEGF-D-expressing cells [3]: do not induce significant proliferation
